Data reported in patent US20140303373A1, “CRYSTALLINE FORM OF TIOTROPIUM BROMIDE” (CERBIOS-PHARMA SA, priority 2013, published 2014).

Columns and labels:
[1] = stability at 25° C./60% relative humidity (impurity profile and X-ray spectrum); format: physicochemical
[2] = accelerated stability study, related substances by HPLC (Eur. Ph. 07/2010:2420); format: physicochemical
Procedure: The tiotropium bromide accelerated stability studies were performed storing the drug substance, prepared as described in the previous examples, at 40±2° C./75±5% RH. Stability was evaluated in dark glass vial with screw cap. The frequency of the analyses performed has included five test points: 0, 7 days, 1, 3, and 6 months. Related substances amount of tiotropium bromide was measured by HPLC, following the Eur. Ph. procedure (07/2010:2420).

C[N+]1(C)C2CC(OC(=O)C(O)(c3cccs3)c3cccs3)CC1[C@@H]1O[C@H]21.[Br-] (some centres unmarked) [Tiotropium Bromide]
impurity profile and X-ray spectrum on storage [1]: did not change for at least six months | impurity profile and X-ray spectrum on storage ([2]; 40° C./75% RH): did not change for at least six months | Related substances: Impurity A, RRT 0.40-0.47 ([2]; 40±2° C./75±5% RH, 7 days): 0.02 | Related substances: Impurity B, RRT 0.79-0.84 ([2]; 40±2° C./75±5% RH, 7 days): 0.04 | Related substances: unnamed, RRT 0.98 ([2]; 40±2° C./75±5% RH, 7 days): 0.03 | Related substances: unnamed, RRT 1.21-1.35 ([2]; 40±2° C./75±5% RH, 7 days): 0.01 | Related substances: unnamed, RRT 1.22-1.37 ([2]; 40±2° C./75±5% RH, 7 days): 0.02 | Sum of impurities ([2]; 40±2° C./75±5% RH, 7 days): 0.12 | Tiotropium Bromide, RRT 1.00 (HPLC) ([2]; 40±2° C./75±5% RH, 7 days): 99.88 | Related substances: Impurity A, RRT 0.40-0.47 ([2]; 40±2° C./75±5% RH, 30 d): 0.02 | Related substances: Impurity B, RRT 0.79-0.84 ([2]; 40±2° C./75±5% RH, 30 d): 0.04 | Related substances: unnamed, RRT 0.98 ([2]; 40±2° C./75±5% RH, 30 d): 0.03 | Related substances: unnamed, RRT 1.22-1.37 ([2]; 40±2° C./75±5% RH, 30 d): 0.03 | Sum of impurities ([2]; 40±2° C./75±5% RH, 30 d): 0.12 | Tiotropium Bromide, RRT 1.00 (HPLC) ([2]; 40±2° C./75±5% RH, 30 d): 99.88 | Related substances: Impurity A, RRT 0.40-0.47 ([2]; 40±2° C./75±5% RH, 90 d): 0.02 | Related substances: Impurity B, RRT 0.79-0.84 ([2]; 40±2° C./75±5% RH, 90 d): 0.04 | Related substances: Impurity E, RRT 1.73 ([2]; 40±2° C./75±5% RH, 90 d): 0.01 | Related substances: unnamed, RRT 0.39 ([2]; 40±2° C./75±5% RH, 90 d): 0.02 | Related substances: unnamed, RRT 0.98 ([2]; 40±2° C./75±5% RH, 90 d): 0.02 | Related substances: unnamed, RRT 1.21-1.35 ([2]; 40±2° C./75±5% RH, 90 d): 0.02 | Related substances: unnamed, RRT 1.22-1.37 ([2]; 40±2° C./75±5% RH, 90 d): 0.03 | Related substances: unnamed, RRT 1.50-1.53 ([2]; 40±2° C./75±5% RH, 90 d): 0.01 | Sum of impurities ([2]; 40±2° C./75±5% RH, 90 d): 0.17 | Tiotropium Bromide, RRT 1.00 (HPLC) ([2]; 40±2° C./75±5% RH, 90 d): 99.83 | Related substances: Impurity A, RRT 0.40-0.47 ([2]; 40±2° C./75±5% RH, 180 d): 0.02 | Related substances: Impurity B, RRT 0.79-0.84 ([2]; 40±2° C./75±5% RH, 180 d): 0.04 | Related substances: unnamed, RRT 0.98 ([2]; 40±2° C./75±5% RH, 180 d): 0.02 | Related substances: unnamed, RRT 1.21-1.35 ([2]; 40±2° C./75±5% RH, 180 d): 0.02 | Related substances: unnamed, RRT 1.22-1.37 ([2]; 40±2° C./75±5% RH, 180 d): 0.03 | Related substances: unnamed, RRT 1.50-1.53 ([2]; 40±2° C./75±5% RH, 180 d): 0.01 | Sum of impurities ([2]; 40±2° C./75±5% RH, 180 d): 0.14 | Tiotropium Bromide, RRT 1.00 (HPLC) ([2]; 40±2° C./75±5% RH, 180 d): 99.86 | Related substances: Impurity A, RRT 0.40-0.47 ([2]; 40±2° C./75±5% RH, Time 0): 0.02 | Related substances: Impurity B, RRT 0.79-0.84 ([2]; 40±2° C./75±5% RH, Time 0): 0.04 | Related substances: unnamed, RRT 0.98 ([2]; 40±2° C./75±5% RH, Time 0): 0.03 | Related substances: unnamed, RRT 1.21-1.35 ([2]; 40±2° C./75±5% RH, Time 0): 0.01 | Related substances: unnamed, RRT 1.22-1.37 ([2]; 40±2° C./75±5% RH, Time 0): 0.02 | Related substances: unnamed, RRT 1.50-1.53 ([2]; 40±2° C./75±5% RH, Time 0): 0.01 | Sum of impurities ([2]; 40±2° C./75±5% RH, Time 0): 0.13 | Tiotropium Bromide, RRT 1.00 (HPLC) ([2]; 40±2° C./75±5% RH, Time 0): 99.87
